Data published in US20240425512A1, “NITROGEN-CONTAINING HETEROCYCLIC COMPOUND, PHARMACEUTICAL COMPOSITION THEREOF AND APPLICATION THEREOF” (280 Bio, Inc., priority 2023, published 2024).
Where two headings read alike, the source gives them in different places.

What was measured:
Format in all cases: cell-based
[1] = test system: NCI-H441 lung cancer cell with KRAS G12V mutation; assay: Proliferation inhibition on RAS cell lines measured by CTG, NCI-H441; conditions: Homo sapiens, Table 2, NCI-H441 cells, incubated for 6 days, CellTiter Glo
From the text: (§1) NCI-H358 is a human non-small cell lung cancer cell line with KRAS G12C mutation; AGS is a gastric cancer cell line with KRAS G12D mutation; SW620 is a colon cancer cell with KRAS G12V mutation; NCI-H460 is a non-small cell lung cancer cell with KRAS Q61H mutation; MKN1 is a wild-type gastric cancer cell with KRAS-amplified; LS513 is a colon cancer cell with KRAS G12D mutation; LoVo is a colon cancer cell with KRAS G13D mutation; NCI-H441 is a lung cancer cell with KRAS G12V mutation, and Capan-2 is a pancreatic cancer cell with KRAS G12V mutation.
(§2) The proliferation inhibitory effect of the compounds on various mutations was evaluated by determining the proliferation inhibitory activity of the compounds on these cell lines.
(§3) The assay was conducted on either 384-well plates or 96-well plates. The procedures are as follows:
(§4) The cell suspensions were added to 384- or 96-well plates (384-well plate: 50 μL; 96-well plate: 100 μL) except for peripheral wells. The plates were placed in a carbon dioxide incubator overnight. NCI-H358, AGS, NCI-H460, MKN-1, LS513, LoVo, and NCI-H441 were placed in a 5%, 370 carbon dioxide incubator overnight, and SW620 was placed in a 0%, 370 carbon dioxide incubator overnight. The HPD300 micro-dosing instrument was used to add the corresponding concentration of compound to each well (9-10 concentration gradients of compound were obtained by 3-fold dilution). Cell plates were incubated in a carbon dioxide incubator for 5-6 days. NCI-H358, AGS, NCI-H460 and MKN-1 were incubated at 5%, 37° incubator and SW620 was incubated at 0%, 370 incubator. On the day of plate measurement, the 384- or 96-well plates were first equilibrated at room temperature for 10-30 min, then CellTiter Glo reagent (384-well plate: 25 μL; 96-well plate: 100 μL) was added to the 384- or 96-well plate, shaken for 10 min away from light, and incubated for 10 min. The plates were placed into Victor NIVO or ENVIDION reader plates, and XLFit was utilized to plot the pharmacodynamic inhibition curve and calculate the IC50 value. “IC50>10 μM” is denoted by “*”, “10 μM≥IC50≥1 μM” is denoted by “**”, and “1 μM≥IC50>100 nM” is denoted by “***”, “IC50<100 nM” is denoted by “****”

[2] = test system: LS513 colon cancer cell with KRAS G12D mutation; assay: Proliferation inhibition on RAS cell lines measured by CTG, LS513; conditions: LS513 cells, incubated for 6 days, CellTiter Glo
From the text: as §1, §2, §3, §4

[3] = test system: Capan-2 pancreatic cancer cell with KRAS G12V mutation; assay: Proliferation inhibition on RAS cell lines measured by CTG, Capan-2; conditions: Homo sapiens, 144 h; Table 2; Capan-2 cells, incubated for 6 days, CellTiter Glo; read-out: IC50 (Capan-2^i)
From the text: as §1, §2, §3, §4

[4] = test system: SW620 colon cancer cell with KRAS G12V mutation; assay: Proliferation inhibition on RAS cell lines measured by CTG, SW620; conditions: Homo sapiens, SW-620, 144 h; Table 2; SW620 cells, incubated for 6 days, CellTiter Glo; read-out: IC50 (SW620^c)
From the text: as §1, §2, §3, §4

GP2D cells = assay: Proliferation inhibition on RAS cell lines measured by CTG, GP2D; conditions: Table 3, incubated for 6 days, CellTiter Glo, read-out: IC50 (GP2D^l)
Description: as §2, §3, §4

[5] = Homo sapiens, LS-513, 144 h, Table 2, read-out: IC50 (LS513^f)
[6] = Table 3, read-out: IC50 (LS513^k)
[7] = Homo sapiens, LS-513, 144 h, Table 3, read-out: IC50 (LS513^k)

Compound	IC50 [2, 5]	IC50 [2, 7]	IC50 (GP2D cells; 144 h)	also measured
C#Cc1c(F)ccc2cc(O)cc(-c3ncc4c(N5CCCCN5C(=O)OC(C)(C)C)nc(OC[C@@]56CCCN5C[C@H](F)C6)nc4c3F)c12 [Compound 17]	< 100 nM			IC50 ([1]; NCI-H441, 144 h): 100 to 1000 nM
C#Cc1c(F)ccc2cc(OC(=O)NC)cc(-c3ncc4c(N5CCCCCN5)nc(OC[C@@]56CCCN5C[C@H](F)C6)nc4c3F)c12 [Compound 19]	< 100 nM			IC50 ([1]; 144 h): 1000 to 10000 nM
C#Cc1c(F)ccc2cc(OC(=O)C(C)C)cc(-c3ncc4c(N5CCCCCN5)nc(OC[C@@]56CCCN5C[C@H](F)C6)nc4c3F)c12 [Compound 23]	< 100 nM			IC50 ([1]; NCI-H441, 144 h): < 100 nM
C#Cc1c(F)ccc2cc(O)cc(-c3ccc4c(N5CCCCCN5)nc(OC[C@@]56CCCN5C[C@H](F)C6)nc4c3)c12 [Compound 26]	100 to 1000 nM			IC50 [3]: 1000 to 10000 nM
C#Cc1c(F)ccc2cc(O)cc(-c3ncc4c(N5CCCC(O)CN5)nc(OC[C@@]56CCCN5C[C@H](F)C6)nc4c3F)c12 (some centres unmarked) [Compound 38]				IC50 [4]: 1000 to 10000 nM
C#Cc1c(F)ccc2cc(O)cc(-c3ncc4c(N5CC(O)CCCN5)nc(OC[C@@]56CCCN5C[C@H](F)C6)nc4c3F)c12 (some centres unmarked) [Compound 39]				IC50 [4]: 1000 to 10000 nM
C#Cc1c(F)ccc2cc(O)cc(-c3c(Cl)cc4c(N5CCCCCN5)nc(OC[C@@]56CCCN5C[C@H](F)C6)nc4c3F)c12 [Compound 41]				IC50 [4]: 1000 to 10000 nM
C/C=C\c1c(Cl)cc2[nH]ncc2c1-c1c(F)cc2c(N3CCCCCN3)nc(OC[C@@]34CCCN3C[C@H](F)C4)nc2c1F [Compound 50]	100 to 1000 nM			IC50 [4]: 100 to 1000 nM
C#Cc1c(F)ccc2cc(OC(=O)[C@@H](NC(=O)OC(C)(C)C)C(C)C)cc(-c3ncc4c(N5CCCCCN5)nc(OC[C@@]56CCCN5C[C@H](F)C6)nc4c3F)c12 [Compound 95]				IC50 (GP2D cells): < 100 nM; IC50 [2, 6]: < 100 nM
C#Cc1c(F)ccc2cc(OC(=O)N[C@H](C(=O)O)[C@@H](C)CC)cc(-c3ncc4c(N5CCCCCN5)nc(OC[C@@]56CCCN5C[C@H](F)C6)nc4c3F)c12 [Compound 96]				IC50 (GP2D cells): < 100 nM; IC50 [2, 6]: < 100 nM
C#Cc1c(F)ccc2cc(OC(=O)N(CCOC)CCOC)cc(-c3ncc4c(N5CCCCCN5)nc(OC[C@@]56CCCN5C[C@H](F)C6)nc4c3F)c12 [Compound 98]		< 100 nM	< 100 nM	
C#Cc1c(F)ccc2cc(OC(=O)N3CCCCC3)cc(-c3ncc4c(N5CCCCCN5)nc(OC[C@@]56CCCN5C[C@H](F)C6)nc4c3F)c12 [Compound 99]		< 100 nM	< 100 nM	
C#Cc1c(F)ccc2cc(OC(=O)NCCCCCCCCCCCCCCCC)cc(-c3ncc4c(N5CCCCCN5)nc(OC[C@@]56CCCN5C[C@H](F)C6)nc4c3F)c12 [Compound 101]		< 100 nM	< 100 nM	
C#Cc1c(F)ccc2cc(OC(=O)COCCOCCOCCOC)cc(-c3ncc4c(N5CCCCCN5)nc(OC[C@@]56CCCN5C[C@H](F)C6)nc4c3F)c12 [Compound 102]				IC50 (GP2D cells): < 100 nM; IC50 [2, 6]: < 100 nM
C#Cc1c(F)ccc2cc(O)cc(-c3ncc4c(N5CCCCCN5)nc(OC[C@@]56CC[C@H](c7cc(F)c(F)c(F)c7)N5C[C@H](F)C6)nc4c3F)c12 [Compound 103]				IC50 (GP2D cells): < 100 nM; IC50 [2, 6]: < 100 nM
C#Cc1c(F)ccc2cc(O)cc(-c3ncc4c(N5CCCCCN5)nc(OCC5(CN6CCC(=CF)CC6)CC5)nc4c3F)c12 [Compound 106]		< 100 nM	< 100 nM	
CCc1c(F)ccc2c(F)c(O)cc(-c3ncc4c(N5CCCCCN5)nc(OC[C@@]56CCCN5C[C@H](F)C6)nc4c3F)c12 [Compound 125]				IC50 (GP2D cells): 100 to 1000 nM; IC50 [2, 6]: 100 to 1000 nM
C#Cc1c(F)ccc2cc(OC(=O)c3cc(F)c(F)c(F)c3)cc(-c3ncc4c(N5CCCCCN5)nc(OC[C@@]56CCCN5C[C@H](F)C6)nc4c3F)c12 [Compound 126]				IC50 (GP2D cells): < 100 nM; IC50 [2, 6]: < 100 nM
C#Cc1c(F)ccc2cc(N)cc(-c3c(F)cc4c(N5CCCCCN5)nc(OC[C@@]56CCCN5C[C@H](F)C6)nc4c3F)c12 [Compound 131]				IC50 (GP2D cells): 100 to 1000 nM; IC50 [2, 6]: 100 to 1000 nM
C#Cc1c(F)ccc2cc(OC(=O)NCCCCCCCCCCCC)cc(-c3ncc4c(N5CCCCCN5)nc(OC[C@@]56CCCN5C[C@H](F)C6)nc4c3F)c12 [Compound 133]		< 100 nM	< 100 nM	
CCc1c(F)ccc2cc(N)cc(-c3c(Cl)cc4c(N5CCCCCN5)nc(OC[C@@]56CCCN5C[C@H](F)C6)nc4c3F)c12 [Compound 134]		100 to 1000 nM	1000 to 10000 nM	
C#Cc1c(F)ccc2cc(OCOC(=O)N(C)C)cc(-c3ncc4c(N5CCCCCN5)nc(OC[C@@]56CCCN5C[C@H](F)C6)nc4c3F)c12 [Compound 145]		100 to 1000 nM	100 to 1000 nM	
C#Cc1c(F)ccc2cc(OC(=O)N(C)C[C@@H]3CCCN3)cc(-c3ncc4c(N5CCCCCN5)nc(OC[C@@]56CCCN5C[C@H](F)C6)nc4c3F)c12 [Compound 151]		< 100 nM	< 100 nM	
C#Cc1c(F)ccc2cc(OC(=O)N(C)CCNC)cc(-c3ncc4c(N5CCCCCN5)nc(OC[C@@]56CCCN5C[C@H](F)C6)nc4c3F)c12 [Compound 153]		< 100 nM	< 100 nM	

Now from value to compound, other results behind:

IC50 [2, 5]	IC50 [2, 7]	Compound	IC50 (GP2D cells; 144 h)	also measured
100 to 1000 nM		C#Cc1c(F)ccc2cc(O)cc(-c3ncc4c(N5CCCCCCN5)nc(OC[C@@]56CCCN5C[C@H](F)C6)nc4c3F)c12 [Compound 15]		IC50 ([1]; NCI-H441, 144 h): 100 to 1000 nM
1000 to 10000 nM		C#Cc1c(F)ccc2cc(O)cc(-c3ncc4c(N5CCCN5)nc(OC[C@@]56CCCN5C[C@H](F)C6)nc4c3F)c12 [Compound 18]		IC50 ([1]; NCI-H441, 144 h): 1000 to 10000 nM
< 100 nM		C#Cc1c(F)ccc2cc(O)cc(-c3ncc4c(N5CCCCCN5)nc(OCC56CCCN5CC(=C)C6)nc4c3F)c12 (centres unmarked) [Compound 24]		IC50 ([1]; NCI-H441, 144 h): 100 to 1000 nM
< 100 nM		C#Cc1c(F)ccc2cc(O)cc(-c3ncc4c(N5CCCCCN5)nc(OCC56CCCN5CCC6)nc4c3F)c12 [Compound 25]		IC50 [3]: 100 to 1000 nM
< 100 nM		C#Cc1c(F)ccc2cc(N)cc(-c3ncc4c(N5CCCCCN5)nc(OC[C@@]56CCCN5C[C@H](F)C6)nc4c3F)c12 [Compound 30]		IC50 [4]: < 100 nM
< 100 nM		C#Cc1c(F)ccc2cc(O)cc(-c3ncc4c(N5CCCCCN5)nc(OCC56CCCN5CC(F)(F)C6)nc4c3F)c12 (centres unmarked) [Compound 37]		IC50 [4]: < 100 nM
< 100 nM		C#Cc1c(F)ccc2cc(O)cc(-c3c(F)cc4c(N5CCCCCN5)nc(OC[C@@]56CCCN5C[C@H](F)C6)nc4c3F)c12 [Compound 49]		IC50 [4]: < 100 nM
	100 to 1000 nM	C#Cc1c(F)ccc2cc(O)cc(-c3ncc4c(N5CCCCCN5)nc(OC[C@@]56CC[C@H](c7cc(F)c(C(F)(F)F)c(F)c7)N5C[C@H](F)C6)nc4c3F)c12 [Compound 117]	100 to 1000 nM	
	100 to 1000 nM	C#Cc1c(F)ccc2cc(O)cc(-c3ncc4c(N5CCCCCN5)nc(OC[C@@]56CC[C@H](c7ccc(C(F)(F)F)c(F)c7)N5C[C@H](F)C6)nc4c3F)c12 [Compound 118]	100 to 1000 nM	
	100 to 1000 nM	C#Cc1c(F)ccc2cc(O)cc(-c3ncc4c(N5CCCCCN5)nc(OC[C@@]56CC[C@H](c7ccc(OC(F)(F)F)cc7)N5C[C@H](F)C6)nc4c3F)c12 [Compound 121]	100 to 1000 nM	
	100 to 1000 nM	C#Cc1c(F)ccc2cc(O)cc(-c3ncc4c(N5CCCCCN5)nc(OCC56COC(C5)C6)nc4c3F)c12 [Compound 137]	100 to 1000 nM	
	< 100 nM	C#Cc1c(F)ccc2cc(O)cc(-c3ncc4c(N5CCCCCN5)nc(OCC5(C)CN(C)CCC5C(F)F)nc4c3F)c12 (centres unmarked) [Compound 149]	< 100 nM	
	< 100 nM	C#Cc1c(F)ccc2cc(O)cc(-c3ncc4c(N5CCCCCN5)nc(OCC5(C)CN(C)CCC5CF)nc4c3F)c12 (centres unmarked) [Compound 150]	< 100 nM	
